“Also recorded” adds a separate entry of the source.
Assays:
[1] = tested on: sclera of enucleated eyes; assay: Ocular inflation model of myopia (enucleated eyes, elevated IOP 85 mmHg); parameters: species or system New Zealand White Rabbits; settings: 0.3% soak 5 min, 10 mW/cm^2, 365 nm, 10 min anterior and 10 min posterior
Procedure: Stabilization of ocular shape is evaluated in vitro using pairs of enucleated eyes from young (˜1-2 weeks) New Zealand White Rabbits, one eye treated and the fellow eye as control. To mimic and accelerate aspects of the loading geometry present in vivo, the intact globes are mechanically tested by imposing an elevated intraocular pressure: a syringe connects the intraocular fluid to an elevated reservoir of Dulbecco's phosphate buffered saline (DPBS) while the exterior of the eye is immersed in DPBS at ambient pressure (FIG. 1).
The size and shape of the globes are simultaneously recorded from two orthogonal perspectives over time. To prepare eyes for the tests, the epithelium is optionally removed from the cornea with a cotton swab, and external fat is removed from the globe. (Note that permeation of the photoinitiator into tissue is examined separately below.) The eyes are then soaked in control (Dulbecco's PBS) or treatment solutions (e.g., 0.029 mM Eosin Y, 90 mM TEOA, in DPBS) for 5 min. After soaking, the eyes are patted dry to remove extra solution from the surface, and then irradiated for 5 min from the front and 5 min from the back with, e.g., 34 mW/cm^2 at 500±50 nm for Eosin Y/TEOA. […] Photographs taken every 10 minutes for approximately 24 hours are analyzed to quantify the extension of the cornea and sclera.

porcine sclera sections = assay: Rheometric analysis of sclera sections (modulus pre- and post-treatment); settings: photoinitiator alone, compared with photoinitiator plus PEGDM
Source text: The ability of initiator with or without crosslinking compounds to strengthen the sclera was initially evaluated using rheometric analysis of tissue sections. Sclera sections (8 mm diameter) were cut from porcine eyes and tested on a TA Instruments AR1000 rheometer (using a cleated parallel plate geometry) to quantify changes in modulus pre- and post-treatment. Two example photoinitiators were selected for initial evaluation.

human and porcine sclera = human and porcine sclera in vitro; cited from earlier work
[2] = after use of topically applied proparacaine (Ehlers et al.); cited from earlier work

| Structure (SMILES) | increase of Young's modulus compared to untreated controls (human and porcine sclera) [%] | other results |
| --- | --- | --- |
| CC(C)(O)C(=O)c1ccc(OCCO)cc1 [compound 12959, 2-hydroxy-1-[4-(2-hydroxyethoxy)phenyl]-2-methyl-1-propanone] | – | stabilization of eye shape / sclera under elevated IOP [1]: hold a steady shape; also recorded: stabilize the sclera; increases in modulus (porcine sclera sections): comparable increases in modulus |
| O=CCCCC=O [Glutaraldehyde] | 122 | – |
| O=CC(O)CO (stereo not drawn) [glyceraldehyde] | 34 | – |
| CCCOc1ccc(C(=O)OCCN(CC)CC)cc1N [proparacaine] | – | increases in drug delivery to the aqueous [2]: 4 fold |
| Cc1cc2nc3c(=O)[nH]c(=O)nc-3n(C[C@H](O)[C@H](O)[C@H](O)CO)c2cc1C [riboflavin-UVA, riboflavin] | 29 | – |
